Our source for the IC50 values is BindingDB's records for doi:10.1016/j.bioorg.2014.05.010 (Ain Shams University, 2014).

SMILES strings stand for the structures.

Vascular endothelial growth factor receptor 2, sequence (P35968 whole entry): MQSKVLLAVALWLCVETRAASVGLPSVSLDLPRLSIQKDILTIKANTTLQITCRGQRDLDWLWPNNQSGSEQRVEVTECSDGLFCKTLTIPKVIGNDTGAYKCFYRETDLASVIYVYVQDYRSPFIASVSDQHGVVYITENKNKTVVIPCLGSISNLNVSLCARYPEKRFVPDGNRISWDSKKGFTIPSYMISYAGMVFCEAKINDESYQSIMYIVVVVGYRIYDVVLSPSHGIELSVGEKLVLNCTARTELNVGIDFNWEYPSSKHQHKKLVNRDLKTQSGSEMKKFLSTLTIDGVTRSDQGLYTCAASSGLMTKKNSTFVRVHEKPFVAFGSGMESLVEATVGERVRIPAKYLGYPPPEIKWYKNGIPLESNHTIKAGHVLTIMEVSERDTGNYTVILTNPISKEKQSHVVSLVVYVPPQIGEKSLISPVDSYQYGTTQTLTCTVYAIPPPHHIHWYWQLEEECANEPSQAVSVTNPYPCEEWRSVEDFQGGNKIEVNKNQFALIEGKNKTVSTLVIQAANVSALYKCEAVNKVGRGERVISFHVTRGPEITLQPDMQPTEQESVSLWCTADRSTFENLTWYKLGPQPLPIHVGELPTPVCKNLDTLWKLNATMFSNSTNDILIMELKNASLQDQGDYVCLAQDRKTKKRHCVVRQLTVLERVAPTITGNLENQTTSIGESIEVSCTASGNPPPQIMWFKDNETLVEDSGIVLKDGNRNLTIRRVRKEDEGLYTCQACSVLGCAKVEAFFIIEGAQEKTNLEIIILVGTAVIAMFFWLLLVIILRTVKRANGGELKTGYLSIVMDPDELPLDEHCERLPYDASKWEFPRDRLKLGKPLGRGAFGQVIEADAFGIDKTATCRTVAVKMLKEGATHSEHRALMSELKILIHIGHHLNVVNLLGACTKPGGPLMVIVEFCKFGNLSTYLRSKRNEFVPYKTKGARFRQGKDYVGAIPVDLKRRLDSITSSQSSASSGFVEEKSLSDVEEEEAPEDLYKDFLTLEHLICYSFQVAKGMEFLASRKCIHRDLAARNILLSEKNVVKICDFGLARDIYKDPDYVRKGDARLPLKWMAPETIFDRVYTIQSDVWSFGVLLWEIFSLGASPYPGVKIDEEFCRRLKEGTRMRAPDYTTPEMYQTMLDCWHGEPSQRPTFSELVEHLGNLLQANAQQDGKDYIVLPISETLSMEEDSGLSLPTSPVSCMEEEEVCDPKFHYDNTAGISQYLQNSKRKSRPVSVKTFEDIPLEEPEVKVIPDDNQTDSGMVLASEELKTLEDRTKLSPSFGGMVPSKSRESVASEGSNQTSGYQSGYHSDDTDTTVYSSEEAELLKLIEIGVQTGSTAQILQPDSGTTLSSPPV

This experiment concerns the target Vascular endothelial growth factor receptor 2 (Homo sapiens, UniProt P35968). The experiment is described as follows: In vitro Inhibition Assay. Particulars: 30 °C. The protocol: Assays are performed for 15 min at 30 °C, with 50 µM of P33-ATP in a final volume of 25 µL. The assays are terminated by spotting 20 µL of the reaction mixture onto a phosphocellulose P81 plate. The P81 plate was washed 3 times for ~15 min each in a 1% phosphoric acid solution to remove excess unreacted P33-ATP.
`COc1ccc(Nc2cnc3cc(NC(=O)Nc4cccc(C)c4)ccc3n2)cc1` [1-(2-((4-Methoxyphenyl)amino)quinoxalin-6-yl)-3-(m-tolyl) urea (XVIc)] yielded an IC50 of 210 µM. As to `COc1ccc(Nc2nc3ccc(NC(=O)c4ccccc4C(=O)O)cc3[nH]c2=O)cc1` [2-((2-((4-Methoxyphenyl)amino)-3-oxo-3,4-dihydroquinoxalin-6-yl)carbamoyl)benzoic acid (IX)], the IC50 came to 61.8 µM.

Turning to `O=C(Nc1ccccc1)Nc1ccc(Nc2cnc3cc([N+](=O)[O-])ccc3n2)cc1` [1-(4-((6-Nitroquinoxalin-2-yl)amino)phenyl)-3-phenylurea (XXIa)], inhibition was half-maximal at 268 µM (IC50).

In the case of `O=C(Nc1ccc(Nc2cnc3cc([N+](=O)[O-])ccc3n2)cc1)Nc1cccc(Cl)c1` [1-(3-Chlorophenyl)-3-(4-((6-nitroquinoxalin-2-yl)amino)-phenyl)urea (XXIb)], the IC50 worked out at 85.4 µM. `COc1ccc(Nc2nc3ccc(NC(=O)Nc4ccccc4)cc3[nH]c2=O)cc1` [1-(2-((4-Methoxyphenyl)amino)-3-oxo-3,4 dihydroquinoxalin-6-yl)-3-phenylurea (VIIa)] had an IC50 of 10.3 µM.
